{
  "source": "patent US11680948B2",
  "about": "(ABREOS BIOSCIENCES, INC., priority 2016, dated 2023)",
  "key": {"[1]": {"system": "natalizumab", "experiment": "Binding of purified phage clones to natalizumab-coated wells", "details": "individually amplified and purified phage clones", "procedure": "Mimetope peptides were selected from phage display libraries, some of which contain cysteines flanking the peptide mimetope sequence to increase stability of the peptide through disulfide bond formation. After three rounds of selection with multiple phage display libraries, individual phage plaques were isolated and sequenced.\nAll of these unique phage clones were individually amplified and purified, and their ability to specifically bind natalizumab-coated wells was assessed. […] Selected peptides derived from validated phage clones were chemically synthesized with an N-terminal acetyl modification (in some cases), C-terminal biotin modification via a terminal lysine (all peptides), and a disulfide bridge between cysteines 2 and 10 or cysteines 8 and 16 by a contract peptide manufacturer, as shown in Table 2."}, "[2]": {"system": "Fc gamma receptors", "details": "like other IgG4 antibodies; cited from earlier work"}, "[3]": {"system": "complement", "details": "in vitro; cited from earlier work"}, "[4]": {"target": "T1, integrin (Homo sapiens, UniProt P13612)", "T1 construct": "host or cells: cells of treated patients", "details": "at the end of 4 weeks, cited from earlier work"}, "[5]": {"system": "Jeko-1 cells, expressing CD49d", "experiment": "Flow cytometry: binding of heat-inactivated natalizumab to Jeko-1 cells", "format": "cell-based", "details": "60° C. for various periods of time; bivalent and arm-exchanged (bispecific) natalizumab"}, "[6]": {"system": "natalizumab", "details": "human serum spiked with natalizumab, rituximab, atezolizumab, pembrolizumab, eculizumab", "procedure": "Synthesized peptides were validated for specificity by using them as ELISA capture reagents on neutravidin-coated plates. Briefly, biotinylated peptides were coated on the wells at 100 ug/mL concentration in either tris buffered saline buffer (TBS) or water. […] Antibody that was captured by the peptides was subsequently detected using a goat anti-human IgG-Fc conjugated to horseradish peroxidase (HRP) combined with a colorimetric substrate. […] The percent of recovery was calculated as follow: calibrated concentration/nominal concentration×100."}, "[7]": {"system": "natalizumab", "experiment": "Competition ELISA between natalizumab-specific VERITOPE and anti-idiotype", "format": "binding", "details": "capture reagent versus competitive reagent", "source_text": "In FIG. 11A natalizumab-specific VERITOPE™ is the capture reagent and anti-idiotype is the competitive reagent. In FIG. 11B, anti-idiotype is the capture reagent and natalizumab-specific VERITOPE™ is the competitive reagent.\nFIGS. 10A and B illustrates a comparison of VERITOPE™ (FIG. 10A) and anti-idiotype (FIG. 10B) ELISA binding."}, "[8]": {"system": "natalizumab", "experiment": "Anti-idiotype ELISA versus VERITOPE ELISA on heat-inactivated natalizumab", "format": "binding", "details": "natalizumab heat-inactivated at 60° C."}, "[9]": {"system": "natalizumab", "details": "1,000 or 10,000 fold molar excess of peptide; Jeko-1 cells", "source_text": "(§1) Jeko-1 cells, expressing CD49d, were used as a model.\nas §1"}},
  "note": "Read-outs that look alike come from different tables or passages of the source.",
  "data": [
    {"substance": "IYAAYPPCPQNLSKFCRHSSSPGGGG [SEQ ID NO: 16]", "values": [
      {"measurement": "specific binding to natalizumab-coated wells", "setting": "[1]", "value": "specific binding to natalizumab"}
    ]},
    {"substance": "ACPKNPNKFCGGG [SEQ ID NO: 4]", "values": [
      {"measurement": "specific binding to natalizumab-coated wells", "setting": "[1]", "value": "specific binding to natalizumab"}
    ]},
    {"substance": "natalizumab", "values": [
      {"measurement": "binding to Fc gamma receptors", "setting": "[2]", "value": "reduced binding to Fc gamma receptors"},
      {"measurement": "ability to fix complement", "setting": "[3]", "value": "lack of ability to fix complement"},
      {"measurement": "integrin saturation by natalizumab", "setting": "[4]; Hyams et al. 2007, crohn disease in adolescents", "value": "less than 40%"},
      {"measurement": "integrin saturation by natalizumab", "setting": "[4]; Miller et al. 2003, relapsing multiple sclerosis", "value": 80, "unit": "%"},
      {"measurement": "effect of heat-inactivation on binding to cellular target", "setting": "[5]", "value": "alters natalizumab binding to its cellular target"}
    ]},
    {"substance": "ACPMNESKFCGGG [SEQ ID NO: 1]", "values": [
      {"measurement": "specific binding to natalizumab-coated wells", "setting": "[1]", "value": "specific binding to natalizumab"}
    ]},
    {"substance": "QTLNHSWLHTFIGGG [SEQ ID NO: 13]", "values": [
      {"measurement": "specific binding to natalizumab-coated wells", "setting": "[1]", "value": "specific binding to natalizumab"}
    ]},
    {"substance": "ACPKNPSKFCGGG{Lys(Biotin)} with Cys2-Cys10 bridge [NTZ-07-Bio]", "values": [
      {"measurement": "selectivity for natalizumab over other therapeutic monoclonal antibodies", "setting": "[6]", "value": "selectively captures natalizumab in presence of other circulating human IgG"}
    ]},
    {"substance": "ACPSNPSKFCGGG [SEQ ID NO: 2]", "values": [
      {"measurement": "specific binding to natalizumab-coated wells", "setting": "[1]", "value": "specific binding to natalizumab"}
    ]},
    {"substance": "Ac-ACPMNESKFCGGG{Lys(Biotin)} with Cys2-Cys10 bridge [NTZ-01-Bio]", "values": [
      {"measurement": "region of natalizumab bound", "setting": "[7]", "value": "bind to the same region of natalizumab, most likely the antigen binding site"},
      {"measurement": "ability of capture reagent to distinguish active and inactive drug", "setting": "[8]", "value": "selectively distinguishes & quantifies active drug"},
      {"measurement": "inhibition of natalizumab binding to its cell surface target", "setting": "[9]", "value": "can inhibit binding of natalizumab to its cell surface target"}
    ]}
  ]
}
